Data on 21 molecules can be found in ChEMBL document CHEMBL4765460, “Palladium-catalysed synthesis of arylnaphthoquinones as antiprotozoal and antimycobacterial agents” (Eur J Med Chem, 2020).

SMILES strings stand for the structures. In brackets after ≈: the same amount, converted by molar mass.

In data set [1] the test system is Mycolicibacterium smegmatis. Description: Antimycobacterial activity against Mycobacterium smegmatis mc2 155 ATCC 700084 assessed as fold reduction in EtBr MIC at half MIC concentration. The format is functional.
Data set [2] has as its system Mycolicibacterium smegmatis. Nature of the data set: Antimycobacterial activity against Mycobacterium smegmatis mc2 155 ATCC 700084 assessed as inhibition of visible growth of bacteria by MTT assay. In kind it is functional. (In general: Tetrazolium assays rely on reduction of a dye to a coloured formazan, in cell work by metabolically active cells.)
Data set [3] can be described thus: Selectivity index, ratio of IC50 for rat L6 cells to IC50 for Plasmodium falciparum NF54. The note with it: read-out: Ratio IC50. The format is toxicity.
Data set [4] is described as follows: Selectivity index, ratio of IC50 for rat L6 cells to IC50 for Trypanosoma brucei rhodesiense STIB900 trypomastigotes. The note with it: read-out: Ratio IC50. In kind it is toxicity.
Data set [5] deals with Trypanosoma brucei rhodesiense. Description: Trypanocidal activity against Trypanosoma brucei rhodesiense STIB900 trypomastigotes incubated for 72 hrs by Alamar blue assay. In kind it is functional, organism-based. The note with it: STIB900, 72 h. A general note: The colour change of resazurin is a common sign of viable cells or microbes.
The test system of a further data set is Plasmodium falciparum. Nature of the data set: Antiplasmodial activity against Plasmodium falciparum NF54 erythrocytic stages assessed as parasite growth inhibition preincubated overnight followed by [G-3H]hypoxanthine addition and measured after 24 hrs by liquid scintillation counting method. In kind it is functional, organism-based.
Another data set relates to L6. Description: Cytotoxicity against rat L6 cells. The format is cell-based.

By MIC is commonly meant the lowest concentration found to suppress growth. For `O=C1C=C(c2ccc(Cl)nc2)C(=O)c2ccccc21`, in data set [1], the “fold change (FC)” value came out at 128. In data set [2], the minimal inhibitory concentration (MIC) is 32 µg/mL (≈ 119 µM). Moreover, the figures for the selectivity ratio in data set [3] and in data set [4] were 463 and 14.7, respectively. The IC50 in data set [5] (read-out: IC50) is 2.2 µM; in data set [5] (read-out: pIC50 (converted)) it was 2.19 µM; in the data set with Plasmodium falciparum (read-out: IC50), 0.07 µM; with Plasmodium falciparum (read-out: pIC50 (converted)) it was 0.0661 µM; with L6 it was 32.4 µM.
Consider `N#Cc1ccc(C2=CC(=O)c3ccccc3C2=O)cc1`, for which the “fold change (FC)” value in data set [1] is above 128. In addition, the minimum inhibitory concentration (MIC) in data set [2] is 64 µg/mL (≈ 247 µM). For the same molecule, the selectivity ratio in data set [3] stood at 6.5; in data set [4] it was 25.8. The IC50 was 0.28 µM in data set [5] (read-out: IC50); 0.275 µM in data set [5] (read-out: pIC50 (converted)); 1.11 µM with Plasmodium falciparum (read-out: IC50); 1.1 µM with Plasmodium falciparum (read-out: pIC50 (converted)); 7.21 µM in the data set with L6.
As for `O=C1C=C(c2ccc(OC(F)(F)F)cc2)C(=O)c2ccccc21`, the “fold change (FC)” value in data set [1] turned out to be 128. Further, the MIC in data set [2] stood at 16 µg/mL (≈ 50.3 µM). Also, the selectivity ratio in data set [3] came to 4.3; in data set [4] it was 7. The IC50 in data set [5] (read-out: IC50) is 2.36 µM; in data set [5] (read-out: pIC50 (converted)), 2.34 µM; with Plasmodium falciparum (read-out: IC50), 3.87 µM; in the data set with Plasmodium falciparum (read-out: pIC50 (converted)), 3.89 µM; in the data set with L6 it was 16.6 µM.
For the molecule `O=C1C=C(c2ccco2)C(=O)c2ccccc21`, the “fold change (FC)” value in data set [1] is listed as 2. Moreover, the MIC in data set [2] was 128 µg/mL (≈ 571 µM). The selectivity ratio in data set [3] stood at 3.6; in data set [4] it was 57.2. The IC50 in data set [5] (read-out: IC50) is 0.13 µM; in data set [5] (read-out: pIC50 (converted)), 0.129 µM; in the data set with Plasmodium falciparum (read-out: IC50), 2.07 µM; in the data set on Plasmodium falciparum (read-out: pIC50 (converted)) it was 2.09 µM; with L6 it was 7.44 µM.
Regarding `O=C1C=C(c2cccc(OC(F)(F)F)c2)C(=O)c2ccccc21`, the “fold change (FC)” value in data set [1] worked out at 128. For the same molecule, the MIC in data set [2] stood at 64 µg/mL (≈ 201 µM). Also, the values for the selectivity ratio in data set [3] and in data set [4] were 26.1 and 12.9, respectively. Moreover, the IC50 in data set [5] (read-out: IC50) is 1.8 µM; in data set [5] (read-out: pIC50 (converted)) it was 1.78 µM; with Plasmodium falciparum (read-out: IC50), 0.89 µM; in the data set on Plasmodium falciparum (read-out: pIC50 (converted)) it was 0.891 µM; in the data set on L6, 23.2 µM.
On to `COc1cc([C@@H]2c3cc4c(cc3[C@H](O)[C@H]3COC(=O)[C@H]23)OCO4)cc(OC)c1OC` [PODOFILOX], for which the IC50 in the data set with L6 is 0.024 µM.
As for `NNC(=O)c1ccncc1` [ISONIAZID], the MIC in data set [2] is 4 µg/mL (≈ 29.2 µM).
For `O=C1C=C(c2cc3ccccc3o2)C(=O)c2ccccc21`, the “fold change (FC)” value in data set [1] is recorded as 2. Further, the MIC in data set [2] was above 128 µg/mL. The selectivity ratio in data set [3] amounted to 8.4; in data set [4] it was 154. Also, the IC50 in data set [5] (read-out: IC50) is 1.36 µM; in data set [5] (read-out: pIC50 (converted)), 1.35 µM; in the data set with Plasmodium falciparum (read-out: IC50), 25 µM; with Plasmodium falciparum (read-out: pIC50 (converted)) it was 25.1 µM; with L6 it was 209 µM.
For `O=C1C=C(c2ccc(C(=O)N3CCCCC3)cc2)C(=O)c2ccccc21`, the “fold change (FC)” value in data set [1] came to 8. The minimal inhibitory concentration (MIC) in data set [2] worked out at 32 µg/mL (≈ 92.6 µM). Moreover, the figures for the selectivity ratio in data set [3] and in data set [4] were 4.1 and 12.9, respectively. The IC50 in data set [5] (read-out: IC50) is 0.75 µM; in data set [5] (read-out: pIC50 (converted)) it was 0.741 µM; in the data set on Plasmodium falciparum (read-out: IC50) it was 2.37 µM; in the data set on Plasmodium falciparum (read-out: pIC50 (converted)) it was 2.34 µM; in the data set on L6, 9.71 µM.
`CC(C)c1ccc(C2=CC(=O)c3ccccc3C2=O)cc1`: the “fold change (FC)” value in data set [1] is listed as 4. Further, the minimum inhibitory concentration (MIC) in data set [2] came out at 64 µg/mL (≈ 232 µM). Further, the selectivity ratio came to 6.9 in data set [3] and 14.1 in data set [4]. Also, the IC50 was 1.45 µM in data set [5] (read-out: IC50); 1.45 µM in data set [5] (read-out: pIC50 (converted)); 2.96 µM with Plasmodium falciparum (read-out: IC50); 2.95 µM with Plasmodium falciparum (read-out: pIC50 (converted)); 20.4 µM with L6.
Consider `CC[n+]1c(-c2ccccc2)c2cc(N)ccc2c2ccc(N)cc21.[Br-]` [HOMIDIUM BROMIDE], for which the MIC in data set [2] amounted to 8 µg/mL.
In the case of `O=C1C=C(c2cnc(Cl)nc2)C(=O)c2ccccc21`, in data set [1], the “fold change (FC)” value was found to be 2. Besides, in data set [2], the minimum inhibitory concentration (MIC) is 4 µg/mL (≈ 14.8 µM). Moreover, the selectivity ratio in data set [3] came out at 2.2; in data set [4] it was 7.8. Moreover, the IC50 in data set [5] (read-out: IC50) is 0.13 µM; in data set [5] (read-out: pIC50 (converted)), 0.129 µM; in the data set on Plasmodium falciparum (read-out: IC50), 0.47 µM; with Plasmodium falciparum (read-out: pIC50 (converted)), 0.468 µM; in the data set on L6, 1.02 µM.
As to `O=C1C=C(c2cnc3ccccc3c2)C(=O)c2ccccc21`, the “fold change (FC)” value in data set [1] came out at 8. Also, in data set [2], the minimal inhibitory concentration (MIC) stood at 8 µg/mL (≈ 28 µM). For the same molecule, the selectivity ratio in data set [3] turned out to be 12.5; in data set [4], 25.6. Besides, the IC50 was 0.22 µM in data set [5] (read-out: IC50); 0.224 µM in data set [5] (read-out: pIC50 (converted)); 0.45 µM with Plasmodium falciparum (read-out: IC50); 0.447 µM in the data set with Plasmodium falciparum (read-out: pIC50 (converted)); 5.64 µM with L6.
Take `O=C1C=C(c2ccc(F)nc2)C(=O)c2ccccc21`: the “fold change (FC)” value in data set [1] is listed as above 128. In addition, the MIC in data set [2] came to 16 µg/mL (≈ 63.2 µM). Besides, the selectivity ratio in data set [3] was 19.1; in data set [4], 15. Besides, the IC50 in data set [5] (read-out: IC50) is 0.14 µM; in data set [5] (read-out: pIC50 (converted)), 0.138 µM; with Plasmodium falciparum (read-out: IC50), 0.11 µM; in the data set on Plasmodium falciparum (read-out: pIC50 (converted)) it was 0.115 µM; in the data set on L6, 2.1 µM.
Turning to `CS(=O)(=O)Nc1cccc(C2=CC(=O)c3ccccc3C2=O)c1`, the “fold change (FC)” value in data set [1] turned out to be 128. For the same molecule, the MIC in data set [2] was above 128 µg/mL. Moreover, the selectivity ratio worked out at 3.6 in data set [3] and 46.3 in data set [4]. For the same molecule, the IC50 in data set [5] (read-out: IC50) is 0.2 µM; in data set [5] (read-out: pIC50 (converted)), 0.2 µM; in the data set on Plasmodium falciparum (read-out: IC50), 2.56 µM; in the data set on Plasmodium falciparum (read-out: pIC50 (converted)), 2.57 µM; in the data set with L6, 9.25 µM.
With `O=C1C=C(c2ccccc2)C(=O)c2ccccc21`, in data set [1], the “fold change (FC)” value was 4. The MIC in data set [2] worked out at 8 µg/mL (≈ 34.2 µM). Besides, the selectivity ratio is 1.8 in data set [3] and 323 in data set [4]. For the same molecule, the IC50 was 0.06 µM in data set [5] (read-out: IC50); 0.055 µM in data set [5] (read-out: pIC50 (converted)); 11 µM in the data set with Plasmodium falciparum (read-out: IC50); 11 µM in the data set with Plasmodium falciparum (read-out: pIC50 (converted)); 19.4 µM in the data set on L6.
As for `O=C1C=C(c2ccc(F)cc2)C(=O)c2ccccc21`, the “fold change (FC)” value in data set [1] is listed as above 128. Moreover, the MIC in data set [2] came to 128 µg/mL (≈ 507 µM). In addition, the selectivity ratio in data set [3] was found to be 5; in data set [4] it was 41.2. Further, the IC50 in data set [5] (read-out: IC50) was 0.22 µM; in data set [5] (read-out: pIC50 (converted)), 0.219 µM; in the data set with Plasmodium falciparum (read-out: IC50) it was 1.81 µM; in the data set on Plasmodium falciparum (read-out: pIC50 (converted)), 1.82 µM; in the data set on L6 it was 9.06 µM.
`O=C1C=C(c2ccc(Cl)cc2)C(=O)c2ccccc21`: the “fold change (FC)” value in data set [1] was above 128. Besides, in data set [2], the MIC worked out at 16 µg/mL (≈ 59.5 µM). Besides, the selectivity ratio in data set [3] is 3.4; in data set [4] it was 40.7. Further, the IC50 in data set [5] (read-out: IC50) is 0.22 µM; in data set [5] (read-out: pIC50 (converted)), 0.224 µM; in the data set on Plasmodium falciparum (read-out: IC50) it was 2.64 µM; in the data set with Plasmodium falciparum (read-out: pIC50 (converted)), 2.63 µM; with L6, 8.96 µM.
For `O=C1C=C(c2ccc(C(F)(F)F)cc2)C(=O)c2ccccc21`, the “fold change (FC)” value in data set [1] was found to be 4. Also, in data set [2], the minimum inhibitory concentration (MIC) is 128 µg/mL (≈ 423 µM). Moreover, the selectivity ratio came to 14 in data set [3] and 189 in data set [4]. For the same molecule, the IC50 is 0.08 µM in data set [5] (read-out: IC50); 0.0759 µM in data set [5] (read-out: pIC50 (converted)); 1.08 µM with Plasmodium falciparum (read-out: IC50); 1.07 µM with Plasmodium falciparum (read-out: pIC50 (converted)); 15.1 µM in the data set on L6.
Turning to `O=C1C=C(c2cc(F)cc(F)c2)C(=O)c2ccccc21`, in data set [1], the “fold change (FC)” value stood at 4. Moreover, the MIC in data set [2] is above 128 µg/mL. Moreover, the selectivity ratio is 16.4 in data set [3] and 40.3 in data set [4]. Also, the IC50 in data set [5] (read-out: IC50) was 0.24 µM; in data set [5] (read-out: pIC50 (converted)), 0.24 µM; with Plasmodium falciparum (read-out: IC50) it was 0.59 µM; in the data set with Plasmodium falciparum (read-out: pIC50 (converted)), 0.589 µM; in the data set on L6 it was 9.67 µM.
With `Cc1ccc(C2=CC(=O)c3ccccc3C2=O)cc1`, the “fold change (FC)” value in data set [1] came to 2. Also, the MIC in data set [2] was 32 µg/mL (≈ 129 µM). For the same molecule, the selectivity ratio in data set [3] stood at 1.9; in data set [4], 90.8. Further, the IC50 was 0.08 µM in data set [5] (read-out: IC50); 0.0759 µM in data set [5] (read-out: pIC50 (converted)); 3.86 µM in the data set with Plasmodium falciparum (read-out: IC50); 3.89 µM in the data set with Plasmodium falciparum (read-out: pIC50 (converted)); 7.26 µM with L6.
